In one assay the test system is embryonic stem cell. The following applies: cited from earlier work.
For assay [1], the system named is ES cell EB5. Briefly: Nerve differentiation of ES cell EB5 by solution recovered from PA6 cell with polyanion-containing Hanks' balanced salt solution (SDIA activity). It is filed as cell-based, mouse. The following applies: 14 days. How it is done: ES cell EB5 (H. Niwa et al., Nature Genet., 24, 372 (2000); obtained from Dr. Hitoshi Niwa at the Molecular Control Medical Science Course, Medical School, Osaka University) was used as the embryonic stem cell, and an MC3T3-G2/PA6 cell (H. Kodama et al., J. Cell Physiol., 112) 89 (1982), hereinafter referred to as “PA6 cell”) as the stromal cell, and the ES cell EB5 was cultured in accordance with the method described in Reference Example 1 and used in the test.
Cells of PA6 cultured to almost confluent state on a dish of 10 cm in diameter were washed twice with 10 ml of PBS(−) (manufactured by Invitrogen) and once with 10 ml of Hanks' balanced salt solution (manufactured by Invitrogen), 3 ml of Hanks' balanced salt solution containing from 0.001% (w/v) to 0.1% (w/v) of heparin (manufactured by Nacalai Tesque) was added thereto, the mixture was allowed to stand at 37° C. for 30 minutes, and the solution was recovered. The solution obtained was added to the PA6 on the 10 cm, dish washed in the same manner described above, the mixture was allowed to stand at 37° C. for 30 minutes in the same manner, and then the solution was recovered. This process was carried out on PA6 on the other 10 cm dish, and effect of the recovered solution ES cell was examined. In this case, a solution recovered in the same manner by using a heparin-free Hanks' balanced salt solution was used as a negative control.
The solution obtained in the above was mixed at a ratio of 1:2 with a solution containing the ES cell EB5 which had been adjusted to a single cell state in a serum-free medium by the method described in Reference Example 1, and the mixture was inoculated into a gelatin-coated plastic culture dish at a cell density of 1,250 cells/cm^2 and incubated at 37° C. for 14 days in a CO2 incubator in an atmosphere of 5% carbon dioxide.
The cells after the culturing were fixed by 4% paraformaldehyde solution and subjected to immune staining in accordance with the method described in Using Antibodies, Cold Spring Harbor Laboratory Press (1999), using an anti-NCAM antibody (manufactured by Chemicon) as a general nerve marker, an anti-class III β-tubulin antibody (manufactured by Babco) as a nerve-specific marker and an anti-nestin antibody (manufactured by Pharmingen) as a nerve precursor cell-specific marker.
Compounds other than heparin with which the SDIA activity factor can be recovered were searched by the method for recovering an SDIA activity factor described in Example 1. Using a Hanks' balanced salt solution containing, instead of heparin, 0.001% (w/v) dextran sulfate (manufactured by Sigma), 0.001% (w/v) polyvinyl sulfate (manufactured by Sigma), 0.001% (w/v) polystyrene sulfonate (manufactured by Tosoh) 0.1% (w/v) carboxymethylcellulose (manufactured by, Wako Pure Chemical Industries) or 0.1% (w/v) hyaluronic acid (manufactured by Kibun Chemical Foods), respective solutions were recovered by the method described in Example 1 to examine their effects on the ES cell. In this case, a solution recovered in the same manner by using a heparin-free Hanks' balanced salt solution was used as a negative control.

Assay [2] relates to ES cell EB5. Put plainly: Heparin treatment of PA6 feeder cell before paraformaldehyde fixation, nerve differentiation of ES cell EB5. In kind it is cell-based, mouse. Conditions: PA6 cell cultured 2 days in medium containing 200 ng/ml heparin, then paraformaldehyde-fixed; 8 days coculture. The procedure: According to the method described in Reference Example 3, the ES cell EB5 was cultured for 8 days in the serum-free medium without BMP4 by using the paraformaldehyde-fixed PA6 cell as a feeder cell. Also, the case when the PA6 cell was cultured in a medium containing heparin (GIBCO BRL) (hereinafter referred to as “heparin treatment”) was compared with the case when culturing in a heparin-free medium. That is, dishes in which the PA6 cell proliferated to almost confluent on a 3 cm tissue culture dish was cultured for 2 days in a medium containing 200 ng/ml of heparin and dishes in which it was cultured for 2 days in a heparin-free medium were prepared, washed twice with PBS(−) and subjected to paraformaldehyde fixation, and the ES cell EB5 was inoculated onto the paraformaldehyde-fixed PA6 cell at a density of 200 cells/dish, the medium was exchanged with a fresh medium on the 4th, 6th and 7th days, and then the cells were cultured at 37° C. for 8 days in a stream of 5% carbon dioxide in a CO2 incubator.
Eight days after coculturing, the cells were fixed according to the method described in Reference Example 1, and the colonies formed as a result of the coculturing of the ES cell EB5 with PA6 cell were immunologically stained with the anti-NCAM antibody, anti-tubulin antibody and anti-nestin antibody.

The mark [3] stands for this setting: solution recovered from PA6 cell with Hanks' solution containing 0.1% (w/v) polyanion instead of heparin.
Setting [4] is: solution recovered from PA6 cell with Hanks' solution containing 0.001% (w/v) polyanion instead of heparin.

As to EGF: epidermal growth factor, the “SDIA-like activity to induce differentiation of embryonic stem cell into ectoderm system cells” value with embryonic stem cell was “no SDIA-like activity”. On to HGF: hepatocyte growth factor, for which the “SDIA-like activity to induce differentiation of embryonic stem cell into ectoderm system cells” value in the assay on embryonic stem cell is “no SDIA-like activity”. In the case of LIF: leukemia inhibitory factor, the “SDIA-like activity to induce differentiation of embryonic stem cell into ectoderm system cells” value in the assay on embryonic stem cell is reported as “no SDIA-like activity”. PDGF: in the assay with embryonic stem cell, the “SDIA-like activity to induce differentiation of embryonic stem cell into ectoderm system cells” value was “no SDIA-like activity”. In the case of bFGF: basic fibroblast growth factor, in the assay on embryonic stem cell, the “SDIA-like activity to induce differentiation of embryonic stem cell into ectoderm system cells” value is given as “no SDIA-like activity”. Consider carboxymethylcellulose, for which, in the assay on ES cell EB5 [1] (setting [3]), the “ratio of colonies expressing class III β-tubulin” value (“ratio” for short) is listed as 34.6%. Regarding dextran sulfate, the “ratio” value in the assay on ES cell EB5 [1] (setting [4]) was 67.2%. For the substance heparin, the “ratio” value with ES cell EB5 [1] (solution recovered from PA6 cell with Hanks' balanced salt solution containing 0.001% (w/v) heparin, mixed 1:2 with ES cell EB5) was determined as 68%. In the assay with ES cell EB5 [2], the “differentiation of ES cell into nerve cell on heparin-treated PA6 feeder cell” value is on record as “significant differentiation of ES cell into nerve cell was not observed”. On to hyaluronic acid, for which the “ratio” value in the assay with ES cell EB5 [1] (setting [3]) was 19.8%. With polystyrene sulfonate, the “ratio” value with ES cell EB5 [1] (setting [4]) was 48.7%. For polyvinyl sulfate, the “ratio” value in the assay with ES cell EB5 [1] (setting [4]) turned out to be 54.8%.
